The values below are quoted from earlier work in US11576929B2, “Composition for inflammatory gastrointestinal disorders” (SUMITOMO SEIKA CHEMICALS CO., LTD., priority 2018, dated 2023).

SMILES strings stand for the structures.

The series has as its system colitis in rats. The settings on record: direct inhalation into rats.

`[C-]#[O+]` [CO (gas), carbon monoxide]: the colitis entry is reported as “inhibited colitis”.
